These results are taken from patent US8785594B2, “Glycoproteins and glycosylated cells and a method for the preparation of the same” (Glycom A/S, priority 2007, dated 2014).

Common to all, as to assay type: cell-based
The test system of assay [1] is B16.BL6 melanoma cells. Kind of assay: Flow cytometry with FITC-labelled GS1B4 (Example 14). The method, then: (§1) Radioactive labelled and regular trisaccharide probe was dissolved in HBSS containing D-glucose (without Mg^2+ and Ca^2+) (Gibco Invitrogen, Taastrup, Denmark) and passed through sterile filters (0.2 μm Supor® Acrodisc® 13, Gelman Sciences, Ann Arbor, Mich.). Four different concentrations of each “Glycom conjugate” (25 mg, 5 mg, 1 mg and 0.1 mg) were made. Twelve flasks (150 cm^2) (TPP, Trasadingen Switzerland) were prepared each containing a total of 10×10^6 B16.BL6 cells. The trisaccharide probe was added and the total volume was adjusted to 20 mL with HBSS containing D-glucose (without Mg^2+ and Ca^2+). The cells were incubated with the “Glycom conjugate” for 1.5 hours at 37° C. After conjugation, the supernatant from each flask was transferred to separate 50 mL tubes (TPP, Trasadingen Switzerland). The cells were harvested with Cell Dissociation Solution C5914 (5 mL per flask) (Sigma-Aldrich, Saint Louis, Mo. and transferred to the 50 mL tubes containing the supernatant. The cells were centrifuged for 3 minutes at 300 G at 20° C. and resuspended in 5 mL of PBS (without Mg^2+ and Ca^2+). This was repeated 3 times before cell concentration and viability was determined by microscopical evaluation of trypan blue stained cell samples.
Cells conjugated with regular trisaccharide probe were analysed by flow cytometry. Four hundred μl of each cell suspension containing 2×10^5 cells were incubated for 15 minutes at 4° C. with 10 μg per mL of FITC-labelled GS1B4. Mean fluorescence intensity of cells stained with GS1B4 was measured by flow cytometry.

Assay [2] deals with B16.BL6 melanoma cells. In words: Scintillation, epitopes per cell (Example 15). As for the experimental part:
Radioactive labelled and regular alpha-Gal trisaccharide-carbamate (9) probe (labeled on the cyclic carbamate carbon) was dissolved in HBSS containing D-glucose (without Mg^2+ and Ca^2+) (Gibco Invitrogen, Taastrup, Denmark) and passed through sterile filters (0.2 μm Supor® Acrodisc® 13, Gelman Sciences, Ann Arbor, Mich.). Eight different concentrations of radioactive labelled alpha-Gal trisaccharide-carbamate (9) (1 μg, 10 μg, 100 μg, 1 mg, 5 mg, 10 mg, 15 mg and 20 mg) and […] of regular “Glycom conjugate” (10 μg, 100 μg, 1 mg, 5 mg, 10 mg, 15 mg and 20 mg) were used. Twelve flasks (300 cm^2) (TPP, Trasadingen Switzerland) were prepared, each containing 10×10^6 B16.BL6 cells, for conjugation with the radioactive labelled trisaccharide probe, and 8 flasks (150 cm^2) (TPP, Trasadingen Switzerland) were prepared, each containing 5×10^6 B16.BL6 cells, for conjugation with the non-radioactive conjugate. The Glycom conjugate was added and the total volume was adjusted with HBSS containing D-glucose (without Mg^2+ and Ca^2+) so that each large flask (300 cm^2) contained a final volume of 20 mL and each medium flask (150 cm^2) contained a final volume of 10 mL. Cells were incubated with the “Glycom conjugate” for 1.5 hours at 37° C. After conjugation, the supernatant from each flask was transferred to separate 50 mL tubes (TPP, Trasadingen Switzerland). The cells were harvested with Cell Dissociation Solution (10 mL per large flask and 5 mL per medium flask) (Sigma-aldrich, Saint Louis, Mo.) and transferred to the 50 mL tubes containing the supernatant. The cells were centrifuged for 5 minutes at 300 G at 20° C. and resuspended in 5 mL of PBS (without Mg^2+ and Ca^2+). This was repeated 3 times before cell concentration and viability was determined by microscopic evaluation of trypan blue stained cell samples.
Cells incubated with radioactive labelled trisaccharide probe were centrifuged for 5 minutes at 1000 G at 20° C. The supernatant was discharged and the remaining pellets were dried. Subsequently, the pellets were dissolved in 450 μl Mili-Q H2O and 1.5 mL of scintillation fluid was added. Standards for the scintillation were made by adding 500 pCi, 0.5 pCi and 0 pCi to the 3 samples of control cells. The samples were stored at room temperature for 3 days, before the cell suspensions were transferred to scintillation vials and counted.

Assay [3] deals with B16.BL6 melanoma cells. Kind of assay: Scintillation, estimation of epitopes per cell (Example 14). As for the experimental part: as §1
Cells conjugated with radioactive labelled trisaccharide probe were centrifuged for 5 minutes at 1000 G at 20° C. The supernatants were discharged and the remaining pellets were dried. Subsequently, the pellets were dissolved in 400 μl Mili-Q H2O and 1.5 mL of scintillation fluid was added. Standards for the scintillation were made by adding 500 pCi, 0.5 pCi and 0 pCi to the 3 samples of control cells. The samples were stored at room temperature for 3 days, before the cell suspensions were transferred to scintillation vials and counted.

Structures are written as SMILES.

On to `O=C1N[C@@H]2O[C@H](CO)[C@@H](O[C@@H]3O[C@H](CO)[C@H](O)[C@H](O[C@H]4O[C@H](CO)[C@H](O)[C@H](O)[C@H]4O)[C@H]3O)[C@H](O)[C@H]2O1` [Compound 9, alpha-Gal trisaccharide-carbamate], for which the “Cells marked with GS1B4” value in assay [1] (0.1 mg conjugate added) is 17.64%; in assay [1] (1 mg conjugate added), 2.36%; in assay [1] (5 mg conjugate added), 14.56%; in assay [1] (25 mg conjugate added) it was 31.86%. Further, the “Mean fluorescence intensity of cells marked with GS1B4” value was found to be 1025.86 in assay [1] (0.1 mg conjugate added), 342.05 in assay [1] (1 mg conjugate added), 1719.58 in assay [1] (5 mg conjugate added) and 2460.67 in assay [1] (25 mg conjugate added). Also, the “Binding of FITC-labelled GS1B4 to conjugated cells” value in assay [1] (0.1-25 mg regular trisaccharide probe) was “only a fraction of the conjugated cells bound detectable amounts of FITC-labelled GS1B4”.

As to `O=[13C]1N[C@@H]2O[C@H](CO)[C@@H](O[C@@H]3O[C@H](CO)[C@H](O)[C@H](O[C@H]4O[C@H](CO)[C@H](O)[C@H](O)[C@H]4O)[C@H]3O)[C@H](O)[C@H]2O1` [radioactive labelled conjugate], the Epitopes per cell in assay [2] (1 μg conjugate added) is reported as 1.0 × 10^6; in assay [2] (10 μg conjugate added), 0.6 × 10^6; in assay [2] (100 μg conjugate added) it was 6.8 × 10^6; in assay [2] (1 mg conjugate added) it was 33.9 × 10^6; in assay [2] (5 mg conjugate added), 175.3 × 10^6; in assay [2] (15 mg conjugate added), 501.2 × 10^6. The Epitopes per cell in assay [2] (20 mg conjugate added) is 515.2 × 10^6; in assay [3] (0.1 mg conjugate added) it was 3.6 × 10^6; in assay [3] (1 mg conjugate added), 28.3 × 10^6; in assay [3] (5 mg conjugate added, cells from supernatant only), 152.4 × 10^6; in assay [3] (25 mg conjugate added, attached cells only) it was 364.2 × 10^6. Also, the “Relation of scintillation counts to dose of conjugate” value in assay [2] (1 μg-20 mg) and in assay [3] (0.1-25 mg) was “positive correlation” each time.
